Activity calls are given as the source filed them. The calls are words filed in the database; no cut-off is given here.
Tests used:
Dipeptidyl peptidase 1 [1] = target: T1, Dipeptidyl peptidase 1 (Homo sapiens, UniProt P53634); assay: Inhibition of human recombinant Cathepsin C using H-Gly-Arg-AMC as substrate pretreated for 30 mins followed by substrate addition and incubated for 60 mins by microplate reader assay
Dipeptidyl peptidase 1 [2] = target: T1, Dipeptidyl peptidase 1; assay: Inhibition of Cathepsin C in human THP-1 cells using H-Gly-Phe-AFC as substrate pretreated for 1 hr followed by substrate addition and incubated for 60 mins by microplate reader assay; assay type: cell-based
Dipeptidyl peptidase 1 [3] = target: T1, Dipeptidyl peptidase 1; assay: Inhibition of Cathepsin C in human U-937 cells using H-Gly-Phe-AFC as substrate pretreated for 1 hr followed by substrate addition and incubated for 60 mins by microplate reader assay; assay type: cell-based
[4] = Acute toxicity in ICR mouse assessed as body weight loss at 1500 mg/kg, po administered as single dose and measured for 7 days; assay type: organism-based; details: in vivo, time 7 day
[5] = Acute toxicity in ICR mouse assessed as pathological changes of kidney at 1500 mg/kg, po administered as single dose measured after 7 days by H and E staining based assay; assay type: organism-based; details: in vivo, time 7 day
[6] = Acute toxicity in ICR mouse assessed as pathological changes of liver at 1500 mg/kg, po administered as single dose measured after 7 days by H and E staining based assay; assay type: organism-based; details: in vivo, time 7 day
[7] = Acute toxicity in ICR mouse assessed as pathological changes of lungs at 1500 mg/kg, po administered as single dose measured after 7 days by H and E staining based assay; assay type: organism-based; details: in vivo, time 7 day
[8] = Acute toxicity in ICR mouse assessed as pathological changes of heart at 1500 mg/kg, po administered as single dose measured after 7 days by H and E staining based assay; assay type: organism-based; details: in vivo, time 7 day
[9] = Acute toxicity in ICR mouse assessed as pathological changes of spleen at 1500 mg/kg, po administered as single dose measured after 7 days by H and E staining based assay; assay type: organism-based; details: in vivo, time 7 day
[10] = Half life in Sprague-Dawley rat at 10 mg/kg, po measured for 24 hrs by LC-MS/MS analysis; assay type: ADME, organism-based; details: in vivo
[11] = MRT in Sprague-Dawley rat at 10 mg/kg, po measured after 24 hrs by LC-MS/MS analysis; assay type: ADME, organism-based; details: in vivo
[12] = Cmax in Sprague-Dawley rat at 2 mg/kg, iv measured after 24 hrs by LC-MS/MS analysis; assay type: ADME, organism-based; parameters: time 24 hrs, dose 2 mg/kg, route iv; details: in vivo
[13] = AUC(last) in Sprague-Dawley rat at 10 mg/kg, po measured after 24 hrs by LC-MS/MS analysis; assay type: ADME, organism-based; parameters: dose 10 mg/kg, time 24 hrs, route po; details: in vivo
[14] = AUC(0 to infinity) in Sprague-Dawley rat at 10 mg/kg, po by LC-MS/MS analysis; assay type: ADME, organism-based; parameters: time infinity, dose 10 mg/kg, route po; details: in vivo
[15] = AUC(0 to infinity) in Sprague-Dawley rat at 2 mg/kg, iv by LC-MS/MS analysis; assay type: ADME, organism-based; parameters: time infinity, dose 2 mg/kg, route iv; details: in vivo
[16] = target: T2, Dipeptidyl peptidase 1 (Mus musculus) (UniProt P97821); assay: Inhibition of Cathepsin C in C57BL/6 mouse Bone marrow cells assessed as reduction of NSPs stability by measuring stability of protease 3 at 1 uM treated for 6 hrs by Western blotting analysis; assay type: cell-based; parameters: scale not given: the % may be the effect or the level left; details: Bone marrow cell
T2 sequence (whole entry): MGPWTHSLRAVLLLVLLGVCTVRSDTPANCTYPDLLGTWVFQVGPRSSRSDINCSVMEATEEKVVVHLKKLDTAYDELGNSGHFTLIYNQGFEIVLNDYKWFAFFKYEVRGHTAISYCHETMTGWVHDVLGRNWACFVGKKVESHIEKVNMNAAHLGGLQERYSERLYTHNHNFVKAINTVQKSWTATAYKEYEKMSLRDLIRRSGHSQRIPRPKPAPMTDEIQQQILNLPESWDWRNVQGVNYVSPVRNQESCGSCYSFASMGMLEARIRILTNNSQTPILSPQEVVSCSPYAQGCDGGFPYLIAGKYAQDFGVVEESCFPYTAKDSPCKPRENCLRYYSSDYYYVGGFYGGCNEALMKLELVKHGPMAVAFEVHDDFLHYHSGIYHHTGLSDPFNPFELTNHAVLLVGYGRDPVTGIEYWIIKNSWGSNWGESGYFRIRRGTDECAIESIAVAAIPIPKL

[17] = target: T2, Dipeptidyl peptidase 1 (Mus musculus); assay: Inhibition of Cathepsin C in C57BL/6 mouse Bone marrow cells assessed as reduction of NSPs stability by measuring stability of neutrophil elastase at 1 uM treated for 48 hrs by Western blotting analysis; assay type: cell-based; parameters: scale not given: the % may be the effect or the level left; details: Bone marrow cell
Mus musculus [18] = assay: Anti-inflammatory activity against po dosed LPS-induced ALI C57BL/6 mouse model assessed as decrease in MPO activity in lungs treated 1 hr prior to LPS challenge and measured after 48 hrs; assay type: functional, organism-based; details: dose 2-50 mg/kg, time 49.0 hrs, DDE = dose-dependent effect
Mus musculus [19] = assay: Anti-inflammatory activity against LPS-induced ALI C57BL/6 mouse model assessed as decrease in pulmonary edema by measuring decrease in lung wet/dry ratio at 2 to 50 mg/kg, po treated 1 hr prior to LPS challenge and measured after 48 hrs; assay type: functional, organism-based; details: dose 2-50 mg/kg, time 49.0 hrs
Mus musculus [20] = assay: Anti-inflammatory activity against po dosed LPS-induced ALI C57BL/6 mouse model assessed as decrease in TNF-alpha level in serum treated 1 hr prior to LPS challenge and measured after 48 hrs by ELISA; assay type: functional, organism-based; details: dose 2-50 mg/kg, time 49.0 hrs, DDE = dose-dependent effect
Dipeptidyl peptidase 1 [21] = target: T1, Dipeptidyl peptidase 1; assay: Binding affinity to Cathepsin C in human U-937 cells assessed as increase in thermal stability measured at 52 degC after 4 hrs by cellular thermal shift assay; assay type: cell-based; details: dose 0.5-10 µM
[22] = Acute toxicity in ICR mouse assessed as mortality at 1500 mg/kg, po administered as single dose and measured for 7 days; assay type: organism-based; details: in vivo, time 7 day
[23] = Acute toxicity in ICR mouse assessed as animal behavioural changes at 1500 mg/kg, po administered as single dose and measured for 7 days; assay type: organism-based; details: in vivo, time 7 day
[24] = target: T2, Dipeptidyl peptidase 1 (Mus musculus); assay: Inhibition of Cathepsin C in C57BL/6 mouse Bone marrow cells assessed as reduction of NSPs stability by measuring stability of protease 3 at 1 uM treated for 12 hrs by Western blotting analysis; assay type: cell-based; parameters: scale not given: the % may be the effect or the level left; details: Bone marrow cell
[25] = target: T2, Dipeptidyl peptidase 1 (Mus musculus); assay: Inhibition of Cathepsin C in C57BL/6 mouse Bone marrow cells assessed as reduction of NSPs stability by measuring stability of cathepsin G at 1 uM treated for 12 hrs by Western blotting analysis; assay type: cell-based; parameters: scale not given: the % may be the effect or the level left; details: Bone marrow cell
Mus musculus [26] = assay: In vivo inhibition of cathepsin C in blood of po dosed LPS-induced ALI C57BL/6 mouse model treated 1 hr prior to LPS challenge and measured after 48 hrs; assay type: functional, organism-based; details: dose 2-50 mg/kg, time 49.0 hrs, DDE = dose-dependent effect
Mus musculus [27] = assay: In vivo inhibition of cathepsin C in po dosed LPS-induced ALI C57BL/6 mouse model assessed as downregulation of neutrophil elastase activity in bone marrow treated 1 hr prior to LPS challenge and measured after 48 hrs; assay type: functional, organism-based; details: dose 2-50 mg/kg, time 49.0 hrs, DDE = dose-dependent effect
Mus musculus [28] = assay: Anti-inflammatory activity against po dosed LPS-induced ALI C57BL/6 mouse model assessed as increase in IL-10 level in serum treated 1 hr prior to LPS challenge and measured after 48 hrs by ELISA; assay type: functional, organism-based; details: dose 2-50 mg/kg, time 49.0 hrs, DDE = dose-dependent effect
Mus musculus [29] = assay: Anti-inflammatory activity against po dosed LPS-induced ALI C57BL/6 mouse model assessed as decrease in IL-6 level in lungs treated 1 hr prior to LPS challenge and measured after 48 hrs by ELISA; assay type: functional, organism-based; details: dose 2-50 mg/kg, time 49.0 hrs, DDE = dose-dependent effect
Mus musculus [30] = assay: Anti-inflammatory activity against po dosed LPS-induced ALI C57BL/6 mouse model assessed as decrease in GM-CSF level in lungs treated 1 hr prior to LPS challenge and measured after 48 hrs by ELISA; assay type: functional, organism-based; details: dose 2-50 mg/kg, time 49.0 hrs, DDE = dose-dependent effect

T1 sequence (P53634 25-134 limits assumed): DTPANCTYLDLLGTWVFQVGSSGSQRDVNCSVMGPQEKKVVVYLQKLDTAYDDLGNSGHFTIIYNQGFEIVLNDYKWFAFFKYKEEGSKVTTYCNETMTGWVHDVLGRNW
T1 sequence (P53634 231-394 limits assumed): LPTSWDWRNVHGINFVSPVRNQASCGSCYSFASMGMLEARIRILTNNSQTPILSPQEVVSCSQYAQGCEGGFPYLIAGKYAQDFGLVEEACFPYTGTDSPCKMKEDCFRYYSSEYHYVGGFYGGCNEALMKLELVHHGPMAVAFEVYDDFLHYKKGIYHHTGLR
T1 sequence (P53634 395-463 limits assumed): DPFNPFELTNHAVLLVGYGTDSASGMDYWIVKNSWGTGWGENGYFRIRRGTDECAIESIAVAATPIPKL

Compound `CC(=O)Nc1cccc(Nc2nc(Nc3ccc(-c4ccsc4)cn3)ncc2Cl)c1` has an IC50 (Dipeptidyl peptidase 1 [1]) of 59.9 nM, an IC50 (Dipeptidyl peptidase 1 [2]) of 115 nM and an IC50 (Dipeptidyl peptidase 1 [3]) of 70.2 nM. For the same compound, the Activity [4] was “Non-Toxic”, the Activity [5] was “Non-Toxic” and the Activity [6] was “Non-Toxic”. For the same compound, the Activity [7] was “Non-Toxic”, the Activity [8] was “Non-Toxic” and the Activity [9] was “Non-Toxic”. For the same compound, the half-life [10] was 1.79 h, the MRT [11] was 2.35 h and the Cmax [12] was 309 ng/mL. For the same compound, the AUC(0-t) at 24 h [13] was 511 ng·h/mL, the AUC [14] was 473.18 ng·h/mL and the AUC [15] was 1124.78 ng·h/mL. The Activity [16] was 95.6%, the Activity [17] was 46.1% and the Activity (Mus musculus [18]) was “Dde”. The Activity (Mus musculus [19]) was “Active”, the Activity (Mus musculus [20]) was “Dde” and the Activity (Dipeptidyl peptidase 1 [21]) was “Active”. The Activity [22] was “Non-Toxic”, the Activity [23] was “Non-Toxic” and the Activity [24] was 78.4%. The Activity [25] was 81.1%, the inhibition (Mus musculus [26]) was “Dde” and the inhibition (Mus musculus [27]) was “Dde”. The Activity (Mus musculus [28]) was “Dde”, the Activity (Mus musculus [29]) was “Dde” and the Activity (Mus musculus [30]) was “Dde”.

From ChEMBL document CHEMBL5154871, “Non-peptidyl non-covalent cathepsin C inhibitoEEr bearing a unique thiophene-substituted pyridine: Design, structure-activity relationship and anti-inflammatory activity in vivo” (Eur J Med Chem, 2022)
